These results are taken from US9504669B2, “Spliceostatin analogs and methods for their preparation” (PFIZER INC., priority 2012, dated 2016).

Where a name gives a salt, the structure may show the parent alone. A value given as a limit tells only on which side of the number the result lay.

Holding throughout (assay type): cell-based
Holding throughout (conditions): free compounds (natural products and synthetic analogs), cell viability 96 hours after treatment

Assay [1] concerns N87 (gastric cancer) cells. The experiment in a line: In vitro cell assay (MTS cell viability), N87. In a few lines:
(§1)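 Cells seeded 24 h, then treated with antibody-drug conjugates or free drug, 3-fold serial dilutions at 10 concentrations in duplicate. Viability by MTS at 96 h as percent of untreated control; IC50 from four-parameter logistic fit.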

Assay [2] concerns MDA-MB-361-DYT2 (breast cancer) cells. The experiment in a line: In vitro cell assay (MTS cell viability), MDA-MB-361-DYT2. An outline of the steps: as §1
Assay [3] deals with BT474 (breast cancer) cells. The experiment in a line: In vitro cell assay (MTS cell viability), BT474. An outline of the steps: as §1

For orientation: IC50 means the concentration needed to halve the response being measured. Low values mean inhibition by little substance, high ones a need for much substance. With `CC(=O)O[C@@H](C)/C=C\C(=O)N[C@@H]1C[C@H](C)[C@H](C/C=C(C)/C=C/[C@@H]2C[C@]3(CO3)C[C@@H](CC(=O)NCCO)O2)O[C@@H]1C` [#B95, ((2S,3Z)-5-{[(2R,3R,5S,6S)-6-{(2E,4E)-5-[(3S,5S,7S)-7-{2-[(2-hydroxyethyl)amino]-2-oxoethyl}-1,6-dioxaspiro[2.5]oct-5-yl]-3-methylpenta-2,4-dien-1-yl}-2,5-dimethyltetrahydro-2H-pyran-3-yl]amino}-5-oxopent-3-en-2-yl acetate], the IC50 in assay [1] was determined as 1.06 nM; in assay [2] it was 11.1 nM; in assay [3] it was 1.28 nM.
In the case of `CC(=O)O[C@@H](C)/C=C\C(=O)N[C@@H]1C[C@H](C)[C@H](C/C=C(C)/C=C/[C@@H]2C[C@]3(CO3)C[C@@H](CC(=O)N(C)Cc3ccc(S(=O)(=O)N(C)C)cc3)O2)O[C@@H]1C` [#B96, (2S,3Z)-5-{[(2R,3R,5S,6S)-6-{(2E,4E)-5-[(3S,5S,7S)-7-(2-{[4-(dimethylsulfamoyl)benzyl](methyl)amino}-2-oxoethyl)-1,6-dioxaspiro[2.5]oct-5-yl]-3-methylpenta-2,4-dien-1-yl}-2,5-dimethyltetrahydro-2H-pyran-3-yl]amino}-5-oxopent-3-en-2-yl acetate], the IC50 in assay [1] (96 h) is 12.3 nM; in assay [2] (96 h) it was 31.5 nM; in assay [3] (Homo sapiens, BT-474) it was 22.9 nM.
Regarding `CC(=O)O[C@@H](C)/C=C\C(=O)N[C@@H]1C[C@H](C)[C@H](C/C=C(C)/C=C/[C@@H]2C[C@]3(CO3)C[C@@H](CC(=O)NCc3ccc(S(N)(=O)=O)cc3)O2)O[C@@H]1C` [#B97, (2S,3Z)-5-{[(2R,3R,5S,6S)-2,5-dimethyl-6-{(2E,4E)-3-methyl-5-[(3S,5S,7S)-7-{2-oxo-2-[(4-sulfamoylbenzyl)amino]ethyl}-1,6-dioxaspiro[2.5]oct-5-yl]penta-2,4-dien-1-yl}tetrahydro-2H-pyran-3-yl]amino}-5-oxopent-3-en-2-yl acetate], the IC50 is 5.09 nM in assay [1] (96 h); 41.6 nM in assay [2] (96 h); 8.83 nM in assay [3] (Homo sapiens, BT-474).
The matching figures for `CC(=O)O[C@@H](C)/C=C\C(=O)N[C@@H]1C[C@H](C)[C@H](C/C=C(C)/C=C/[C@@H]2C[C@]3(CO3)C[C@@H](CC(=O)NCc3ccc(S(=O)(=O)N(C)C)cc3)O2)O[C@@H]1C` [#B98, (2S,3Z)-5-{[(2R,3R,5S,6S)-6-{(2E,4E)-5-[(3S,5S,7S)-7-(2-{[4-(dimethylsulfamoyl)benzyl]amino}-2-oxoethyl)-1,6-dioxaspiro[2.5]oct-5-yl]-3-methylpenta-2,4-dien-1-yl}-2,5-dimethyltetrahydro-2H-pyran-3-yl]amino}-5-oxopent-3-en-2-yl acetate]: 2.55 nM, 8.7 nM and 5.75 nM.
For the molecule `CC(=O)O[C@@H](C)/C=C\C(=O)N[C@@H]1C[C@H](C)[C@H](C/C=C(C)/C=C/[C@@H]2C[C@]3(CO3)C[C@@H](CC(=O)NCCS(C)(=O)=O)O2)O[C@@H]1C` [#B99, (2S,3Z)-5-{[(2R,3R,5S,6S)-2,5-dimethyl-6-{(2E,4E)-3-methyl-5-[(3S,5S,7S)-7-(2-{[2-(methylsulfonyl)ethyl]amino}-2-oxoethyl)-1,6-dioxaspiro[2.5]oct-5-yl]penta-2,4-dien-1-yl}tetraydro-2H-pyran-3-yl]amino}-5-oxopent-3-en-2-yl acetate], the IC50 was 3.28 nM in assay [1], 21.5 nM in assay [2] and 7.87 nM in assay [3].
With `CC(=O)O[C@@H](C)/C=C\C(=O)N[C@@H]1C[C@H](C)[C@H](C/C=C(C)/C=C/[C@@H]2C[C@]3(CO3)C[C@@H](CC(=O)NCc3ccc(N)cc3)O2)O[C@@H]1C` [#B100, (2S,3Z)-5-{[(2R,3R,5S,6S)-6-{(2E,4E)-5-[(3S,5S,7S)-7-{2-[(4-aminobenzyl)amino]-2-oxoethyl}-1,6-dioxaspiro[2.5]oct-5-yl]-3-methylpenta-2,4-dien-1-yl}-2,5-dimethyltetrahydro-2H-pyran-3-yl]amino}-5-oxopent-3-en-2-yl acetate], the IC50 in assay [1] (96 h) came out at 5.05 nM; in assay [2] (96 h) it was 16.9 nM; in assay [3] (Homo sapiens, BT-474) it was 10.6 nM.
The matching figures for `CC(=O)O[C@@H](C)/C=C\C(=O)N[C@@H]1C[C@H](C)[C@H](C/C=C(C)/C=C/[C@@H]2C[C@]3(CO3)C[C@@H](CC(=O)NCc3ccccc3)O2)O[C@@H]1C` [#B101, (2S,3Z)-5-({(2R,3R,5S,6S)-6-[(2E,4E)-5-{(3S,5S,7S)-7-[2-(benzylamino)-2-oxoethyl]-1,6-dioxaspiro[2.5]oct-5-yl}-3-methylpenta-2,4-dien-1-yl]-2,5-dimethyltetrahydro-2H-pyran-3-yl}amino)-5-oxopent-3-en-2-yl acetate]: 10.4 nM, 34.8 nM and 25.6 nM.
The matching figures for `CSCCN(C)C(=O)C[C@@H]1C[C@@]2(CO2)C[C@@H](/C=C/C(C)=C/C[C@@H]2O[C@H](C)[C@H](NC(=O)/C=C\[C@H](C)OC(C)=O)C[C@@H]2C)O1` [#B102, (2S,3Z)-5-{[(2R,3R,5S,6S)-2,5-dimethyl-6-{(2E,4E)-3-methyl-5-[(3S,5S,7S)-7-(2-{methyl[2-(methylsulfanyl)ethyl]amino}-2-oxoethyl)-1,6-dioxaspiro[2.5]oct-5-yl]penta-2,4-dien-1-yl}tetrahydro-2H-pyran-3-yl]amino}-5-oxopent-3-en-2-yl acetate]: 7.79 nM, 32.9 nM and 10.7 nM.
The matching figures for `CSCCNC(=O)C[C@@H]1C[C@@]2(CO2)C[C@@H](/C=C/C(C)=C/C[C@@H]2O[C@H](C)[C@H](NC(=O)/C=C\[C@H](C)OC(C)=O)C[C@@H]2C)O1` [#B103, (2S,3Z)-5-{[(2R,3R,5S,6S)-2,5-dimethyl-6-{(2E,4E)-3-methyl-5-[(3S,5S,7S)-7-(2-{[2-(methylsulfanyl)ethyl]amino}-2-oxoethyl)-1,6-dioxaspiro[2.5]oct-5-yl]penta-2,4-dien-1-yl}tetrahydro-2H-pyran-3-yl]amino}-5-oxopent-3-en-2-yl acetate]: 1.6 nM, 4.25 nM and 4.03 nM.
In the case of `CC(=O)O[C@@H](C)/C=C\C(=O)N[C@@H]1C[C@H](C)[C@H](C/C=C(C)/C=C/[C@@H]2C[C@]3(CO3)C[C@@H](CC(=O)NCCS(C)(=O)=O)O2)O[C@@H]1C` [#B104, (2S,3Z)-5-{[(2R,3R,5S,6S)-2,5-dimethyl-6-{(2E,4E)-3-methyl-5-[(3S,5S,7S)-7-(2-{[2-(methylsulfonyl)ethyl]amino}-2-oxoethyl)-1,6-dioxaspiro[2.5]oct-5-yl]penta-2,4-dien-1-yl}tetrahydro-2H-pyran-3-yl]amino}-5-oxopent-3-en-2-yl acetate], the IC50 in assay [1] (96 h) was determined as 1.41 nM; in assay [2] (96 h), 9.13 nM; in assay [3] (Homo sapiens, BT-474), 4.02 nM.
The matching figures for `CC(=O)/C=C\C(=O)N[C@@H]1C[C@H](C)[C@H](C/C=C(C)/C=C/[C@@H]2C[C@]3(CO3)C[C@@H](CC(N)=O)O2)O[C@@H]1C` [#B129, (2Z)—N-[(2R,3R,5S,6S)-6-{(2E,4E)-5-[(3S,5S,7S)-7-(2-amino-2-oxoethyl)-1,6-dioxaspiro[2.5]oct-5-yl]-3-methylpenta-2,4-dien-1-yl}-2,5-dimethyltetrahydro-2H-pyran-3-yl]-4-oxopent-2-enamide]: greater than 100 nM, greater than 100 nM and greater than 100 nM.
In the same order, the values of `CSCCN(C)C(=O)O[C@@H](C)/C=C\C(=O)N[C@@H]1C[C@H](C)[C@H](C/C=C(C)/C=C/[C@H]2O[C@H](CC(N)=O)C[C@@]3(CO3)[C@@H]2O)O[C@@H]1C` [#B130, (2S,3Z)-5-{[(2R,3R,5S,6S)-6-{(2E,4E)-5-[(3R,4R,5R,7S)-7-(2-amino-2-oxoethyl)-4-hydroxy-1,6-dioxaspiro[2.5]oct-5-yl]-3-methylpenta-2,4-dien-1-yl}-2,5-dimethyltetrahydro-2H-pyran-3-yl]amino}-5-oxopent-3-en-2-yl methyl[2-(methylsulfanyl)ethyl]carbamate] are 2.98 nM, 4.5 nM and 1.5 nM.
The matching figures for `CC(/C=C/[C@H]1O[C@H](CC(N)=O)C[C@@]2(CO2)[C@@H]1O)=C\C[C@@H]1O[C@H](C)[C@H](NC(=O)/C=C\[C@H](C)OC(=O)N2CCCCC2)C[C@@H]1C` [#B134, (2S,3Z)-5-{[(2R,3R,5S,6S)-6-{(2E,4E)-5-[(3R,4R,5R,7S)-7-(2-amino-2-oxoethyl)-4-hydroxy-1,6-dioxaspiro[2.5]oct-5-yl]-3-methylpenta-2,4-dien-1-yl}-2,5-dimethyltetrahydro-2H-pyran-3-yl]amino}-5-oxopent-3-en-2-yl piperidine-1-carboxylate]: 1.8 nM, 2.02 nM and 1.18 nM.
`CC(/C=C/[C@@H]1C[C@]2(CO2)C[C@@H](CC(N)=O)O1)=C\C[C@@H]1O[C@H](C)[C@H](NC(=O)/C=C\[C@H](C)OC(=O)N2CCNCC2)C[C@@H]1C` [#B136, (2S,3Z)-5-{[(2R,3R,5S,6S)-6-{(2E,4E)-5-[(3S,5S,7S)-7-(2-amino-2-oxoethyl)-1,6-dioxaspiro[2.5]oct-5-yl]-3-methylpenta-2,4-dien-1-yl}-2,5-dimethyltetrahydro-2H-pyran-3-yl]amino}-5-oxopent-3-en-2-yl piperazine-1-carboxylate, acetate salt]: the IC50 was 90.1 nM in assay [1] (96 h); greater than 100 nM in assay [2] (96 h); 25.5 nM in assay [3] (Homo sapiens, BT-474).
The matching figures for `CC(/C=C/[C@@H]1C[C@]2(CO2)C[C@@H](CC(N)=O)O1)=C\C[C@@H]1O[C@H](C)[C@H](NC(=O)/C=C\[C@H](C)OC(=O)N2CCN(C)CC2)C[C@@H]1C` [#B137, (2S,3Z)-5-{[(2R,3R,5S,6S)-6-{(2E,4E)-5-[(3S,5S,7S)-7-(2-amino-2-oxoethyl)-1,6-dioxaspiro[2.5]oct-5-yl]-3-methylpenta-2,4-dien-1-yl}-2,5-dimethyltetrahydro-2H-pyran-3-yl]amino}-5-oxopent-3-en-2-yl-4-methylpiperazine-1-carboxylate]: 5.59 nM, 10.3 nM and 1.8 nM.
